Data on eight molecules can be found in patent US5789444A, “Method of reducing glutamate neurotoxicity with anthranilic acid derivatives” (Washington University, priority 1996, dated 1998).

Entries after “also recorded” stand apart in the source; their conditions may differ.

Assay [1] relates to NMDA-induced neurotoxicity, mouse cortical cultures. The experiment in a line: NMDA-mediated excitotoxicity in mixed cortical cultures (neuronal injury by LDH release). Format: cell-based. The protocol:
(§1) Cell Culture: Mixed cortical cultures containing both neuronal and glial elements were prepared from fetal mice at 15 day gestation as previously described (Hewett et al., 1993). Glia were plated in Primaria (Falcon) 15 mm multiwell vessels in modified Eagle's medium (MEM, Earle's salts), with 2 mM glutamine, 25 mM glucose, 10% fetal bovine serum, 10% horse serum, and 10 ng/ml epidermal growth factor. Dissociated cortical cells were plated (2.75 hemispheres/10 ml/plate) in a similar medium (with only 5% fetal bovine serum and 5% horse serum) on an established bed of glia (15-30 days in vitro). All cultures were kept at 37° C. in a humidified 5% CO2 -containing atmosphere. After 3-7 days in vitro, glial cell division was halted by 2 days of exposure to 10 μM cytosine arabinoside. Cells were subsequently shifted into maintenance medium which was identical to the plating medium, but lacked fetal bovine serum. The medium was changed twice weekly. Experiments were performed on cortical cultures after 14 days in vitro.
Drug Exposure: Cells were exposed to NMDA for 5 min either alone or in the presence of test compound at room temperature in a HEPES controlled salt solution (HCSS), containing (mM): NaCl, 120; KCl, 5.4; MgCl2, 0.8; CaCl2, 1.8; HEPES, 20; glucose, 15, and glycine, 0.01 (pH 7.4). The exposure solution was then washed away and replaced by MEM (Earle's salts) supplemented with glycine (0.01 mM) and the cells returned to the incubator for 20-24 hr.
Since the neurotoxicity of NMDA preparations can vary from lot to lot, the concentration of NMDA used was determined empirically in a separate benchmarking test. Cells were exposed as described above to increasing concentrations of NMDA, and neuronal injury is assessed as described below. A dose/response curve is plotted, and a concentration which induces death in 50-70% of the neuronal population after 24 hours is used as the test concentration for evaluating compounds as neuroprotective drugs.
Assessment of Neuronal Cell Injury: Neuronal cell death was estimated by examination of cultures under phase-contrast microscopy, and quantified by measurement of lactate dehydrogenase (LDH) released by damaged or destroyed cells into the bathing medium one day following experimentation (Koh, J. Y. and Choi, D. W., 1987). The LDH signal corresponding to near-complete neuronal death was determined by assaying the supernatant of sister cultures which were exposed to 500 μM NMDA for 24 hr in MEM supplemented with 10 μM glycine. Background LDH levels (generally <15% of total neuronal) were determined in sister cultures subjected to sham wash and subtracted from the levels in experimental conditions to yield the LDH signal specific to experimental injury.
Mouse cortical cultures were exposed for 5 min to NMDA (100 μM) alone or in the presence of increasing concentrations of meclofenamate sodium, as described under Experimental Procedures, above. Values represent the mean LDH±SEM (n=5-7) scaled to the mean LDH found in control injury (=100).
Mouse cortical cultures were exposed, as described in Example 1, for 5 min to solutions containing increasing concentrations of NMDA or NMDA plus 300 μM meclofenamate. LDH activity was assessed 20-24 hr later. Data are expressed as the percentage of total LDH released (mean ±SEM; n=10). Total LDH was determined by assaying the supernatant of sister cultures which were incubated with 500 μM NMDA for 24 hr. An asterisk indicates difference form untreated controls as determined by repeated measures Analysis of Variance ("ANOVA") followed by Bonferroni's t-test for multiple comparisons (p<0.01).
Cells were exposed to NMDA (100-200 μM) (as described previously) both in the presence and absence of cyclooxygenase/lipooxygenase inhibitors. Data represents the mean LDH±SEM scaled to the mean LDH found in control injury (NMDA alone=100). Data were analyzed via ANOVA followed by Dunnett's t-test for multiple comparisons.
In general terms: LDH leaks from cells whose membrane has failed.

For assay [2], the system named is NMDA-induced 45Ca2+ influx. The experiment in a line: 45Ca2+ accumulation during NMDA exposure in cortical cultures. It is filed as cell-based, mouse. The conditions noted are these: NMDA 300 μM, 5 min, increasing concentrations, n=18, FIG. 4. Here is the method: ^45 Ca^2 + accumulation: Mouse cortical cultures were washed with HCSS and then exposed to NMDA (300 μM) alone or in the presence of increasing concentrations of meclofenamate in HCSS containing a trace amount of ^45 Ca^2+ (0.5 μCi/well; NEN, Boston, Mass.). After 5 min the exposure solution was washed out with four rinses of HCSS (750 μl each) and the cells were lysed by addition of 0.2% sodium dodecyl sulfate (SDS) at 37° C. An aliquot of cell lysate was estimated by β-counting.
Mouse cortical cultures were exposed, as in Example 1, for 5 min to NMDA (300 μM) alone or NMDA plus increasing concentrations of meclofenamate in the presence of extracellular ^45 Ca^2+. Values are expressed as mean ±SEM (n=18).

For assay [3], the system named is cyclooxygenase and lipoxygenase metabolites. The assay can be described thus: RIA measurements of lipid breakdown products following NMDA exposure. The conditions noted are these: data not shown. Format: cell-based.
In a further assay the test system is NMDA receptor. The experiment in a line: Whole-cell recording of NMDA current in cortical neurons. Format: cell-based, mouse. Here is the method:
Electrophysiological Recording: NMDA current was recorded at room temperature (25° C.) from DIV 12-20 cortical neurons plated on 35 mm dishes using whole-cell recording (EPC-7, List-Electronic, Germany) under voltage clamp. The data acquisition program, PULSE (HEKA Electronic, Germany), was used to control the voltage clamp, to monitor and to collect current and voltage data on a Macintosh computer (Quatra 950, Apple Computer Corp., USA). The extracellular solution contained (mM): NaCl, 145; KCl, 3; MnCl2, 2; CaCl2, 2; glycine, 0.01; HEPES, 10; TTX, 0.005 and glucose, 5. The recording electrode's internal solution contained (mM) CsCl, 150, ATP-Na, 2, BAPTA, 0.5 and HEPES, 10. All solutions were adjusted to pH 7.3 by Tris buffer. NMDA (100 μM) in the extracellular solution was delivered to the cell by a multi-channel DAD drug delivery system (Adams and List Inc., New York.) To eliminate dilution of drug, meclofenamate was added to the bath medium and NMDA was delivered in an extracellular solution containing the same concentration of drug.
Ten min prior to NMDA (100 μM) application, mouse cortical cells were treated with 300 μM meclofenamate. NMDA current was recorded using whole cell recording techniques. To eliminate dilution of drug, NMDA was delivered to the cell in a solution containing the same concentration of drug as that in the bath.

Another assay deals with lipid catabolism. As to conditions: known; cited from earlier work.
Assay [4] deals with focal cerebral ischemia, Long Evans male rats. The assay can be described thus: Induced focal cerebral ischemia (MCAO) with reperfusion, cortical infarct volume. Format: in vivo, rat. Here is the method:
Surgical MCAO occlusion: Focal cerebral ischemia, confined to the cerebral cortex in the right middle cerebral artery territory (MCA) of Long Evans male rats (250-350 g; Charles Rivers, Wilmington, Del.), was induced by temporary ligation of the MCA and both common carotid arteries (CCAs) as described by Chen et al., 1986. The rectal temperature was monitored and maintained at 37.0°±0.5° C. via an electronic temperature controller (Versa-Therm 2156, Cole-Parmer, Chicago, Ill.) linked to a heating lamp. Physiological parameters including plasma blood glucose, arterial blood pressure, and pulse rate were monitored as described previously and maintained within normal range (Liu et al, 1989). Reperfusion was initiated by releasing arterial occlusion affecting all 3 vessels after 90 min of ischemia. Restoration of blood flow in all three arteries was observed directly under the microscope. Rats were treated i.p. with vehicle (control) or meclofenamate (10 mg/kg, i.p.) 15 min before ischemia.. The cortical infarct volume was morphometrically measured after triphenyl tetrazolium chloride stain 24 hr after MCAO.
31 rats underwent middle cerebral artery occlusion (MCAO) followed by reperfusion. Fourteen rats underwent MCAO alone while 17 rats were given intraperitoneal meclofenamate (10 mg/kg) 15 minutes prior to 90 min MCAO.

The subject of assay [5] is lipoxygenase/cyclooxygenase. The conditions noted are these: conclusion of prior studies; cited from earlier work.
Assay [6] has as its system voltage-gated calcium channels. The assay can be described thus: KCl-stimulated influx of calcium (fura-2 fluorescence videomicroscopy). It is filed as cell-based, mouse. The conditions noted are these: meclofenamate 300 μM, 60 mM KCl, 5 min; FIG. 5. Here is the method: as §1, with “The medium was changed twice weekly. Experiments were performed on cortical cultures after 14 days in vitro.” left out
Cytosolic Calcium Measurements: Intracellular free calcium was measured using fura-2 fluorescence videomicroscopy. […] Background fluorescence was measured from a cell free region of the coverslip at the end of each experiment and subtracted from each 340 and 380 image. […]
Cells were exposed for 5 minutes, as in Example 1, to 60 mM KCl in the presence and absence of meclofenamate (300 μM). Intracellular free calcium [Ca^2 +]i was measured using fura-2 fluorescence videomicroscopy.

Where [7] appears, read: Mus musculus, compound 300 μM, NMDA 100-200 μM, mean LDH±SEM, asterisk = significantly different from control, read-out: LDH, % of control (NMDA alone=100).

In the case of `CCCCCCCCC#CCC#CCC#CCCCC(=O)O` [ETI], the “LDH, % of control (NMDA alone=100)” value in assay [1] (compound 300 μM, NMDA 100-200 μM, mean LDH±SEM, asterisk = significantly different from control) turned out to be 107 ± 13.0%.

In the case of `CCCCCC#CCC#CCC#CCC#CCCCC(=O)O` [ETYA], in assay [1] (setting [7]), the activity at 300 µM was found to be 85.1 ± 6.2%.

Regarding `O=c1ccc2cc(O)c(O)cc2o1` [Esculetin], the activity at 300 µM in assay [1] (setting [7]) stood at 117 ± 17.1%.

As for `Cc1ccc(Cl)c(Nc2ccccc2C(=O)O)c1Cl` [Meclofenamate], the “NMDA-induced 45Ca2+ influx / uptake” value is listed as “did not significantly affect uptake at any concentration tested” in assay [2] and “not significantly altered” in assay [2] (listed as meclofenamate). The “formation of cyclooxygenase and lipoxygenase metabolites” value in assay [3] is “able to block formation of both cyclooxygenase and lipoxygenase metabolites”. The NMDA current entry in the assay on NMDA receptor (300 μM, 10 min prior to NMDA (100 μM), whole-cell, FIG. 3) was “failed to alter the current elicited by application of NMDA”. The NMDA receptor antagonism entry with NMDA receptor (electrophysiological and radiotracer flux measurements) is “not an NMDA receptor antagonist”. For the same molecule, the “inhibition of lipid catabolism” value with lipid catabolism was “inhibitor of lipid catabolism”. Besides, in assay [4] (10 mg/kg i.p. 15 min prior to 90 min MCAO, 24 hr, control 144.8±8.8, p<0.002), the cortical infarct volume is 99.2±9.2 mm^3. Moreover, in assay [4] (in vivo, summary in words), the “neuroprotection in animal model of cerebral ischemia” value is “neuroprotective”. In assay [5], the lipoxygenase/cyclooxygenase inhibition entry was “dual lipoxygenase/cyclooxygenase inhibitor”. Moreover, the “elevation of intracellular calcium produced by KCl stimulation” value in assay [6] is on record as “no effect on the elevation of intracellular calcium produced by KCl stimulation”. For the same molecule, in assay [1] (setting [7]), the activity at 300 µM amounted to 10.8 ± 5.1%. In assay [1] (given at the same time as NMDA (100 μM, 5 min), increasing concentrations, FIG. 1), the “neuronal injury (LDH release)” value is listed as “dose-dependently decreased neuronal injury”. The “protective effect against NMDA receptor-mediated neurotoxicity” value in assay [1] (in vitro, summary in words, listed as meclofenamate sodium) was “powerful protective effect; also recorded: neuroprotective”. For the same molecule, in assay [1] (meclofenamate 300 μM, FIG. 2), the “neuroprotection over a full concentration-toxicity curve for NMDA” value is recorded as “Complete neuroprotection”.

Regarding `CC(Cc1ccc(O)c(O)c1)C(C)Cc1ccc(O)c(O)c1` (stereo not drawn) [NDGA], the activity at 30 µM in assay [1] (Mus musculus, compound 30 μM, NMDA 100-200 μM, mean LDH±SEM, read-out: LDH, % of control (NMDA alone=100)) is 101 ± 11%.

As to `O=C1CCN(c2ccccc2)N1` [Phenidone], the activity at 300 µM in assay [1] (setting [7]) came to 58.1 ± 6.7%.

On to `CC(C)Cc1ccc(C(C)C(=O)O)cc1` (stereo not drawn) [ibuprofen], for which the activity at 100 µM in assay [1] (Mus musculus, compound 100 μM, NMDA 100-200 μM, mean LDH±SEM, asterisk = significantly different from control, read-out: LDH, % of control (NMDA alone=100)) came to 65.4 ± 3.5%.

Take `COc1ccc2cc([C@H](C)C(=O)O)ccc2c1` [naproxen]: the activity at 300 µM in assay [1] (setting [7]) was determined as 82.5 ± 7.1%.
